Measurements as given in the supplement of paper PMC10307832.

Experiments:
Assay in all cases: relative viability (nuclei count vs DMSO), 5 days (fraction); higher = more cells survive
Ponatinib + Olaparib = compound: Cc1ccc(C(=O)Nc2ccc(CN3CCN(C)CC3)c(C(F)(F)F)c2)cc1C#Cc1cnc2cccnn12 [Ponatinib] + O=C(c1cc(Cc2n[nH]c(=O)c3ccccc23)ccc1F)N1CCN(C(=O)C2CC2)CC1 [Olaparib] (partner 8 µM)
How it was run: (§1)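 One day after seeding in 1536-well plates, lung cancer cell lines were dosed by pin tool. Dosing was either single-drug or a fixed anchor-drug dose plus five library-drug doses (not always all listed) in √10 steps. After 5 days, nuclei were stained in one fix-and-stain step and counted on 4× images, and relative viability is the nuclei count of treated wells over that of vehicle wells, given as the median of duplicate plates.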

Pazopanib + Trametinib = compound: Cc1ccc(Nc2nccc(N(C)c3ccc4c(C)n(C)nc4c3)n2)cc1S(N)(=O)=O [Pazopanib] + CC(=O)Nc1cccc(-n2c(=O)n(C3CC3)c(=O)c3c(Nc4ccc(I)cc4F)n(C)c(=O)c(C)c32)c1 [Trametinib] (partner 0.02 µM)
How it was run: as §1

Pazopanib + OSI-027 = compound: Cc1ccc(Nc2nccc(N(C)c3ccc4c(C)n(C)nc4c3)n2)cc1S(N)(=O)=O [Pazopanib] + COc1cccc2cc(-c3nc([C@H]4CC[C@H](C(=O)O)CC4)n4ncnc(N)c34)[nH]c12 [OSI-027] (partner 0.5 µM)
How it was run: as §1

Pazopanib + Crizotinib = compound: Cc1ccc(Nc2nccc(N(C)c3ccc4c(C)n(C)nc4c3)n2)cc1S(N)(=O)=O [Pazopanib] + C[C@@H](Oc1cc(-c2cnn(C3CCNCC3)c2)cnc1N)c1c(Cl)ccc(F)c1Cl [Crizotinib] (partner 1 µM)
How it was run: as §1

Cell Line	relative viability (Ponatinib + Olaparib; first compound 0.002 µM)	relative viability (Ponatinib + Olaparib; first compound 0.006325 µM)	relative viability (Ponatinib + Olaparib; first compound 0.06325 µM)	relative viability (Ponatinib + Olaparib; first compound 0.2 µM)	relative viability (Pazopanib + Trametinib; first compound 0.03162 µM)	relative viability (Pazopanib + Trametinib; first compound 0.1 µM)	relative viability (Pazopanib + Trametinib; first compound 0.3162 µM)	relative viability (Pazopanib + Trametinib; first compound 1 µM)	relative viability (Pazopanib + OSI-027; first compound 0.01 µM)	relative viability (Pazopanib + OSI-027; first compound 0.03162 µM)	relative viability (Pazopanib + OSI-027; first compound 0.1 µM)	relative viability (Pazopanib + OSI-027; first compound 0.3162 µM)	relative viability (Pazopanib + OSI-027; first compound 1 µM)	relative viability (Pazopanib + Crizotinib; first compound 0.01 µM)	relative viability (Pazopanib + Crizotinib; first compound 0.03162 µM)	relative viability (Pazopanib + Crizotinib; first compound 0.1 µM)	relative viability (Pazopanib + Crizotinib; first compound 0.3162 µM)	relative viability (Pazopanib + Crizotinib; first compound 1 µM)	relative viability (Pazopanib + Trametinib; first compound 0.01 µM)
LU99A	0.259	0.246	0.255	0.255	0.622	0.632	0.597	0.595	0.29	0.315	0.334	0.349	0.301	0.499	0.533	0.53	0.606	0.568	
NCI-H2405	0.784	0.796	0.95	0.776	0.672	0.666	0.644	0.524	0.628	0.67	0.72	0.656	0.736	0.825	0.863	0.842	0.915	0.713	0.562
NCI-H2009	0.586	0.632	0.655	0.616	0.25	0.175	0.315	0.332	0.576	0.622	0.566	0.56	0.44	1.05	1.06	1.01	1.05	0.964	0.277
HCC-15	0.673	0.721	0.767	0.738	0.338	0.382	0.417	0.406	0.622	0.825	0.7	0.669	0.815	0.773	0.924	1.01	0.813	0.893	0.326
HCC-44	0.942	0.997	0.923	0.929	1	1.03	1	1.09	0.405	0.572	0.584	0.68	0.677	0.839	0.779	0.86	0.795	0.823	1.03
COR-L23	0.277	0.349	0.335	0.303	0.649	0.698	0.625	0.773	0.91	0.838	0.872	0.832	0.913	0.635	0.645	0.663	0.704	0.64	0.511
HCC-78	0.836	0.819	0.825	0.726	0.864	0.721	0.804	1.06	0.361	0.423	0.348	0.411	0.371	0.366	0.354	0.349	0.358	0.383	
NCI-H838	0.758	0.771	0.795	0.669	0.558	0.483	0.599	0.594	0.435	0.488	0.373	0.42	0.555	0.821	0.951	0.982	0.912	1.08	0.465
NCI-H2087	0.514	0.609	0.635	0.497	0.261	0.192	0.174	0.242	0.502	0.567	0.489	0.553	0.487	0.952	0.76	1.01	0.812	0.701	0.223
BEN	1.06	1.18	1.13	0.92	1.04	0.916	1.08	0.925		0.348	0.314	0.287	0.314	0.737	1.05	0.814	0.904	0.787	1.05
LCLC-103H	0.754	0.743	0.838	0.694	0.725	0.68	0.646	0.723	0.495	0.454	0.547	0.482	0.485	0.968	1.03	1.14	1.06	1.24	0.589
EKVX	0.956	0.897	0.971	0.767	0.349	0.267	0.318	0.449	0.664	0.741	0.642	0.691	0.788	0.841	1.07	0.898	0.916	0.891	0.337
LXF-289	0.97	1.05	1.06	1.06	0.675	0.717	0.71	0.706	0.815	0.774	0.805	0.77	0.843	0.851	0.829	0.801	0.782	0.824	0.691
NCI-H661	0.724	0.704	0.833	0.737	0.589	0.621	0.614	0.534	0.669	0.784	0.745	0.689	0.735	1.13	0.976	1.03	0.998	0.987	0.518
NCI-H1650	0.919	0.884	0.916	0.751	0.682	0.734	0.629	0.695	0.727	0.759	0.744	0.803	0.699	1.09	1	1	0.857	0.965	0.725
NCI-H2085	0.808	0.814	0.9	0.754	0.518	0.568	0.574	0.592	0.817	0.782	0.752	0.719	0.787	0.952	0.968	0.911	0.919	0.935	0.44
NCI-H1944	0.378	0.455	0.427	0.441	0.387	0.407	0.453	0.433		0.422	0.46	0.441	0.48	1.13	1.11	1.05	1.04	1.05	0.389

Cell Line	relative viability (Ponatinib + Olaparib; first compound 0.002 µM)	relative viability (Ponatinib + Olaparib; first compound 0.006325 µM)	relative viability (Ponatinib + Olaparib; first compound 0.06325 µM)	relative viability (Ponatinib + Olaparib; first compound 0.2 µM)	relative viability (Pazopanib + Trametinib; first compound 0.03162 µM)	relative viability (Pazopanib + Trametinib; first compound 0.1 µM)	relative viability (Pazopanib + Trametinib; first compound 0.3162 µM)	relative viability (Pazopanib + Trametinib; first compound 1 µM)	relative viability (Pazopanib + OSI-027; first compound 0.01 µM)	relative viability (Pazopanib + OSI-027; first compound 0.03162 µM)	relative viability (Pazopanib + OSI-027; first compound 0.1 µM)	relative viability (Pazopanib + OSI-027; first compound 0.3162 µM)	relative viability (Pazopanib + OSI-027; first compound 1 µM)	relative viability (Pazopanib + Crizotinib; first compound 0.01 µM)	relative viability (Pazopanib + Crizotinib; first compound 0.03162 µM)	relative viability (Pazopanib + Crizotinib; first compound 0.1 µM)	relative viability (Pazopanib + Crizotinib; first compound 0.3162 µM)	relative viability (Pazopanib + Crizotinib; first compound 1 µM)	relative viability (Pazopanib + Trametinib; first compound 0.01 µM)
LC-2-ad	0.764	0.762	0.781	0.713	0.934	0.89	0.915	0.858	0.865	1	0.84	0.808	0.99	0.483	0.462	0.467	0.423	0.467	0.905
COR-L 105	0.711	0.709	0.723	0.747	0.406	0.438	0.427	0.58	0.636	0.665	0.635	0.75	0.857	0.712	0.984	0.838	0.883	0.964	0.468
NCI-H1355	0.668	0.709	0.817	0.739	0.409	0.397	0.446	0.534	0.37	0.441	0.396	0.423	0.477		0.965	1.08	0.982	1.05	0.363
H3255	0.573	0.534	0.602	0.554	0.564	0.617	0.739	0.731	0.512	0.535	0.638	0.606	0.752	0.828	0.882	0.853	0.945	0.995	0.512
NCI-H1993	1.01	1.01	1.16	1.12	0.451	0.576	0.438	0.512		0.603	0.599	0.479	0.461	0.871	0.902	0.971	0.926	0.877	
NCI-H1734	0.62	0.618	0.673	0.488	0.697	0.671	0.612	0.626	0.56	0.555	0.558	0.567	0.605	0.689	0.727	0.614	0.658	0.622	0.669
HOP-62	0.313	0.172	0.211	0.355	0.371	0.421	0.427	0.5	0.787	0.869	0.871	0.879	0.727	0.974	0.68		0.946	0.948	0.378
LOU-NH91	0.898	0.919	1.03	0.879	0.769	0.848	0.795	0.822	0.701	0.753	0.719	0.781	0.728	0.726	0.731	0.711	0.757	0.761	0.721
ChaGo-K-1	0.438	0.486	0.41	0.436	0.75	0.904	0.905	0.901	0.528	0.504	0.541	0.498	0.581	1.18	1.19	0.997	1.23	1.06	0.908
NCI-H2228	0.622	0.57	0.823	0.566	0.501	0.425	0.32	0.759	0.518	0.495	0.532	0.507	0.655	0.51	0.446	0.402	0.496	0.366	0.353
PC-3 [JPC-3]		1.15	1.3	1.09	0.686	0.73	0.835	0.65	0.929	0.806	0.747	0.756	0.661	1.03	1.01	1.02	0.925	0.936	
NCI-H1437	0.598	0.595	0.654	0.623	0.531	0.454	0.575	0.509	0.901	0.879	0.998	0.907	1.05	0.936	0.935	0.953	0.807	1.05	0.525
NCI-H520	0.335	0.355	0.325	0.225	0.78	0.644	0.751	0.6	0.271	0.268	0.259	0.301	0.262		0.894	0.991	0.672	0.747	0.606
NCI-H1666	0.749	0.76	0.733	0.664	0.893	0.899	0.884	1	0.86	0.953	0.882	0.866	0.948	1.09	1	0.875	1.09	1.27	0.925
NCI-H1651	0.197	0.195	0.18	0.177	0.831	0.814	0.808	0.862	0.66	0.742	0.728	0.715	0.871	0.809	0.775	0.822	0.853	0.924	0.833
NCI-H1755	0.806	0.856	0.882	0.782	0.748	0.799	0.723	0.767	0.693	0.653	0.671	0.678	0.632	0.817	0.847	0.962	0.844	0.857	0.685
NCI-H727	0.609	0.742	0.587	0.627		0.393	0.359	0.4	0.462	0.561	0.545	0.505	0.574	0.98	0.787	1.15	0.831	1.08	0.395
